Patent US12570642B2, “GLP-IR modulating compounds” (Gilead Sciences, Inc., priority 2021, dated 2026)

Biological target: GLP-1R (Homo sapiens, UniProt P43220)
Experiment: GLP-1R Activation - cAMP Assay
Assay type: cell-based
Conditions: cAMP increase in CHO cells stably expressing GLP-1R; each compound run on one of the two cAMP assays (Assay 1 or Assay 2, not specified)
Summary of the method: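 CHO cells stably expressing GLP-1R, plated at 1,000 cells/well overnight, then equilibrated 1 h in HBSS with 20 mM Hepes and 0.1% BSA. Agonist added as 10-point dose response for 30 min at 37 °C. cAMP measured by HTRF (Cisbio Gs Dynamic kit); EC50 from sigmoidal fit.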

Sequence of GLP-1R (P43220 24-463): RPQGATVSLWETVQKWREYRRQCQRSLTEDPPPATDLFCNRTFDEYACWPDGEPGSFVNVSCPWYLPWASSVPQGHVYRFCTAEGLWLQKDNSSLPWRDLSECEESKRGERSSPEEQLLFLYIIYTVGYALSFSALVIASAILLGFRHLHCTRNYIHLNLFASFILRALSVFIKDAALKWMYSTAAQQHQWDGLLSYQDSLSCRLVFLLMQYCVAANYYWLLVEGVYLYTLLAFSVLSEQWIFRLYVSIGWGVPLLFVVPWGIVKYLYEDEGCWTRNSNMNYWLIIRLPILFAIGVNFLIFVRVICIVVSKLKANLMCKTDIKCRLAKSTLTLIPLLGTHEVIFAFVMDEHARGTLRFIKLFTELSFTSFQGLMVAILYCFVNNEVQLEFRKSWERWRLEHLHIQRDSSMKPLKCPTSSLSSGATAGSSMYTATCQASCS

| Structure (SMILES) | EC50 [pM] |
| --- | --- |
| CC1(C)COC[C@H]1n1c(Cc2cc(F)c(-c3cccc(OCc4ccc(C#N)cc4F)n3)cc2F)nc2ccc(C(=O)O)nc21 [Example 439, (S)-2-(4-(6-((4-cyano-2-fluorobenzyl)oxy)pyridin-2-yl)-2,5-difluorobenzyl)-3-(4,4-dimethyltetrahydrofuran-3-yl)-3H-imidazo[4,5-b]pyridine-5-carboxylic acid] | 171 |
| CC1(C)COC[C@H]1n1c(Cc2cc(F)c(-c3cccc(OCc4ccc(C#N)cc4)n3)cc2F)nc2ccc(C(=O)O)nc21 [Example 440, (S)-2-(4-(6-((4-cyanobenzyl)oxy)pyridin-2-yl)-2,5-difluorobenzyl)-3-(4,4-dimethyltetrahydrofuran-3-yl)-3H-imidazo[4,5-b]pyridine-5-carboxylic acid] | 956 |
| Cn1cc(-c2ccc(COc3cccc(-c4cc(F)c(Cc5nc6ccc(C(=O)O)cc6n5[C@@H]5COCC5(C)C)cc4F)n3)c(F)c2)nn1 [Example 442, (S)-2-(2,5-difluoro-4-(6-((2-fluoro-4-(1-methyl-1H-1,2,3-triazol-4-yl)benzyl)oxy)pyridin-2-yl)benzyl)-1-(4,4-dimethyltetrahydrofuran-3-yl)-1H-benzo[d]imidazole-6-carboxylic acid] | 42 |
| Cc1ncc(-c2ccc(COc3cccc(-c4cc(F)c(Cc5nc6ccc(C(=O)O)cc6n5[C@@H]5COCC5(C)C)cc4F)n3)c(F)c2)o1 [Example 445, (S)-2-(2,5-difluoro-4-(6-((2-fluoro-4-(2-methyloxazol-5-yl)benzyl)oxy)pyridin-2-yl)benzyl)-1-(4,4-dimethyltetrahydrofuran-3-yl)-1H-benzo[d]imidazole-6-carboxylic acid] | 279 |
| CC1(C)COC[C@H]1n1c(Cc2cc(F)c(-c3cccc(OCc4ccc(Cl)cc4C#N)n3)cc2F)nc2ccc(C(=O)O)cc21 [Example 449, (S)-2-(4-(6-((4-chloro-2-cyanobenzyl)oxy)pyridin-2-yl)-2,5-difluorobenzyl)-1-(4,4-dimethyltetrahydrofuran-3-yl)-1H-benzo[d]imidazole-6-carboxylic acid] | 21 |
| Cc1cc(COc2cccc(-c3cc(F)c(Cc4nc5ccc(C(=O)O)cc5n4[C@@H]4COCC4(C)C)cc3F)n2)c(F)cc1Cl [Example 450, (S)-2-(4-(6-((4-chloro-2-fluoro-5-methylbenzyl)oxy)pyridin-2-yl)-2,5-difluorobenzyl)-1-(4,4-dimethyltetrahydrofuran-3-yl)-1H-benzo[d]imidazole-6-carboxylic acid] | 1040 |
| CC1(C)COC[C@H]1n1c(Cc2cc(F)c(-c3cccc(OCc4ccc(F)c(F)c4F)n3)cc2F)nc2ccc(C(=O)O)cc21 [Example 451, (S)-2-(2,5-difluoro-4-(6-((2,3,4-trifluorobenzyl)oxy)pyridin-2-yl)benzyl)-1-(4,4-dimethyltetrahydrofuran-3-yl)-1H-benzo[d]imidazole-6-carboxylic acid] | 621 |
| Cc1ccc(COc2cccc(-c3cc(F)c(Cc4nc5ccc(C(=O)O)cc5n4[C@@H]4COCC4(C)C)cc3F)n2)cc1Cl [Example 452, (S)-2-(4-(6-((3-chloro-4-methylbenzyl)oxy)pyridin-2-yl)-2,5-difluorobenzyl)-1-(4,4-dimethyltetrahydrofuran-3-yl)-1H-benzo[d]imidazole-6-carboxylic acid] | 564 |
| CC1(C)COC[C@H]1n1c(Cc2cc(F)c(-c3cccc(OCc4c(F)cc(Cl)cc4F)n3)cc2F)nc2ccc(C(=O)O)cc21 [Example 453, (S)-2-(4-(6-((4-chloro-2,6-difluorobenzyl)oxy)pyridin-2-yl)-2,5-difluorobenzyl)-1-(4,4-dimethyltetrahydrofuran-3-yl)-1H-benzo[d]imidazole-6-carboxylic acid] | 527 |
| CC1(C)COC[C@H]1n1c(Cc2cc(F)c(-c3cccc(OCc4cc(F)c(F)cc4F)n3)cc2F)nc2ccc(C(=O)O)cc21 [Example 455, (S)-2-(2,5-difluoro-4-(6-((2,4,5-trifluorobenzyl)oxy)pyridin-2-yl)benzyl)-1-(4,4-dimethyltetrahydrofuran-3-yl)-1H-benzo[d]imidazole-6-carboxylic acid] | 126 |
| Cc1cc(F)c(COc2cccc(-c3cc(F)c(Cc4nc5ccc(C(=O)O)cc5n4[C@@H]4COCC4(C)C)cc3F)n2)cc1F [Example 456, (S)-2-(4-(6-((2,5-difluoro-4-methylbenzyl)oxy)pyridin-2-yl)-2,5-difluorobenzyl)-1-(4,4-dimethyltetrahydrofuran-3-yl)-1H-benzo[d]imidazole-6-carboxylic acid] | 332 |
| CC1(C)COC[C@H]1n1c(Cc2cc(F)c(-c3cccc(OCc4ccc(F)c(F)c4)n3)cc2F)nc2ccc(C(=O)O)cc21 [Example 457, (S)-2-(4-(6-((3,4-difluorobenzyl)oxy)pyridin-2-yl)-2,5-difluorobenzyl)-1-(4,4-dimethyltetrahydrofuran-3-yl)-1H-benzo[d]imidazole-6-carboxylic acid] | 157 |
| CC1(C)COC[C@H]1n1c(Cc2cc(F)c(-c3cccc(OCc4c(F)cc(F)cc4F)n3)cc2F)nc2ccc(C(=O)O)cc21 [Example 458, (S)-2-(2,5-difluoro-4-(6-((2,4,6-trifluorobenzyl)oxy)pyridin-2-yl)benzyl)-1-(4,4-dimethyltetrahydrofuran-3-yl)-1H-benzo[d]imidazole-6-carboxylic acid] | 315 |
| CC1(C)COC[C@H]1n1c(Cc2cc(F)c(-c3cccc(OCc4ccc(C#N)cc4Cl)n3)cc2F)nc2ccc(C(=O)O)cc21 [Example 460, (S)-2-(4-(6-((2-chloro-4-cyanobenzyl)oxy)pyridin-2-yl)-2,5-difluorobenzyl)-1-(4,4-dimethyltetrahydrofuran-3-yl)-1H-benzo[d]imidazole-6-carboxylic acid] | 96 |

The remaining compounds from weak to strong by EC50, led by results:

| EC50 [pM] | Structure (SMILES) |
| --- | --- |
| 1390 | CC1(C)COC[C@H]1n1c(Cc2cc(F)c(-c3cc(C(F)F)cc(OCc4ccc(Cl)cc4F)n3)cc2F)nc2ccc(C(=O)O)cc21 [Example 447, (S)-2-(4-(6-((4-chloro-2-fluorobenzyl)oxy)-4-(difluoromethyl)pyridin-2-yl)-2,5-difluorobenzyl)-1-(4,4-dimethyltetrahydrofuran-3-yl)-1H-benzo[d]imidazole-6-carboxylic acid] |
| 800 | Cc1cc(F)c(COc2cccc(-c3cc(F)c(Cc4nc5ccc(C(=O)O)cc5n4[C@@H]4COCC4(C)C)cc3F)n2)cc1Cl [Example 459, (S)-2-(4-(6-((5-chloro-2-fluoro-4-methylbenzyl)oxy)pyridin-2-yl)-2,5-difluorobenzyl)-1-(4,4-dimethyltetrahydrofuran-3-yl)-1H-benzo[d]imidazole-6-carboxylic acid] |
| 722 | CC1(C)COC[C@H]1n1c(Cc2cc(F)c(-c3ccc(F)c(OCc4ccc(Cl)cc4)n3)cc2F)nc2c(Cl)cc(C(=O)O)cc21 [Example 441, (S)-4-chloro-2-(4-(6-((4-chlorobenzyl)oxy)-5-fluoropyridin-2-yl)-2,5-difluorobenzyl)-1-(4,4-dimethyltetrahydrofuran-3-yl)-1H-benzo[d]imidazole-6-carboxylic acid] |
| 644 | CC1(C)COC[C@H]1n1c(Cc2cc(F)c(-c3cccc(OCc4ccc(Cl)cc4F)n3)cc2F)nc2ccc(C(=O)O)nc21 [Example 437, (S)-2-(4-(6-((4-chloro-2-fluorobenzyl)oxy)pyridin-2-yl)-2,5-difluorobenzyl)-3-(4,4-dimethyltetrahydrofuran-3-yl)-3H-imidazo[4,5-b]pyridine-5-carboxylic acid] |
| 519 | CC1(C)COC[C@H]1n1c(Cc2cc(F)c(-c3cccc(OCc4ccc(Cl)cc4)n3)cc2F)nc2ccc(C(=O)O)nc21 [Example 438, (S)-2-(4-(6-((4-chlorobenzyl)oxy)pyridin-2-yl)-2,5-difluorobenzyl)-3-(4,4-dimethyltetrahydrofuran-3-yl)-3H-imidazo[4,5-b]pyridine-5-carboxylic acid] |
| 477 | CC1(C)COC[C@H]1n1c(Cc2cc(F)c(-c3cccc(OCc4cc(F)c(F)cc4Cl)n3)cc2F)nc2ccc(C(=O)O)cc21 [Example 454, (S)-2-(4-(6-((2-chloro-4,5-difluorobenzyl)oxy)pyridin-2-yl)-2,5-difluorobenzyl)-1-(4,4-dimethyltetrahydrofuran-3-yl)-1H-benzo[d]imidazole-6-carboxylic acid] |
| 365 | Cc1ncc(-c2ccc(COc3cccc(-c4cc(F)c(Cc5nc6ccc(C(=O)O)cc6n5[C@@H]5COCC5(C)C)cc4F)n3)c(F)c2)s1 [Example 444, (S)-2-(2,5-difluoro-4-(6-((2-fluoro-4-(2-methylthiazol-5-yl)benzyl)oxy)pyridin-2-yl)benzyl)-1-(4,4-dimethyltetrahydrofuran-3-yl)-1H-benzo[d]imidazole-6-carboxylic acid] |
| 352 | CC1(C)COC[C@H]1n1c(Cc2cc(F)c(-c3cccc(OCc4ccc(-n5cncn5)cc4)n3)cc2F)nc2ccc(C(=O)O)cc21 [Example 448, (S)-2-(4-(6-((4-(1H-1,2,4-triazol-1-yl)benzyl)oxy)pyridin-2-yl)-2,5-difluorobenzyl)-1-(4,4-dimethyltetrahydrofuran-3-yl)-1H-benzo[d]imidazole-6-carboxylic acid] |
| 210 | CC1(C)COC[C@H]1n1c(Cc2cc(F)c(-c3cccc(OCc4ccc(-c5cnn(C(F)F)c5)cc4F)n3)cc2F)nc2ccc(C(=O)O)cc21 [Example 443, (S)-2-(4-(6-((4-(1-(difluoromethyl)-1H-pyrazol-4-yl)-2-fluorobenzyl)oxy)pyridin-2-yl)-2,5-difluorobenzyl)-1-(4,4-dimethyltetrahydrofuran-3-yl)-1H-benzo[d]imidazole-6-carboxylic acid] |
| 200 | CC1(C)COC[C@H]1n1c(Cc2cc(F)c(-c3cccc(OCc4ccccc4C#N)n3)cc2F)nc2ccc(C(=O)O)cc21 [Example 446, (S)-2-(4-(6-((2-cyanobenzyl)oxy)pyridin-2-yl)-2,5-difluorobenzyl)-1-(4,4-dimethyltetrahydrofuran-3-yl)-1H-benzo[d]imidazole-6-carboxylic acid] |
